Reference: PMC7607171, “Optimized low‐dose combinatorial drug treatment boosts selectivity and efficacy of colorectal carcinoma treatment” (Molecular Oncology, 2020)
Several values for one entry are separate records, joined by “and”; a condition that tells them apart may be missing. Equal values may be shown once. Read-outs that look alike come from different tables or passages of the source.

What was measured:
[1] = 0-24h; ref EPAR WC00033991; cited from earlier work
[2] = Serum and intratumor drug concentration at experimental endpoint, DLD1 model; type: in vivo, mice; conditions: for concentration at 1 h / Kp at 1 h: Swiss Nu/nu, mouse, oral; for concentration at 1 h: 1h post-treatment at endpoint (day 15); for Kp at 1 h: tumor vs serum, read-out: ratio tumor vs serum; for Kp at 1 h / ratio ODC vs single drug: DLD1 model
Experimental: At the experimental endpoint, plasma and tumors were collected 1h post‐treatment and part of the tumor tissue was used to determine the intratumor drug concentrations. Plasma and tumor samples were analyzed using the same LC‐MS/MS method used for drug determination in DBS. Before analysis, tumor tissues were homogenized in a 1 mL mixture of water/acetonitrile (30/70). Hundred uL of homogenates were transferred into new tubes and 50 µL of acetonitrile, as well as 50 µL of a mix of internal standards in MeOH were added. Tubes were vortexed and centrifuged for 10 min at 9,000 rpm. The supernatant (100 µL) was evaporated under nitrogen and reconstituted in 100 µL of acetonitrile with 0.1% formic acid/water with 0.1% formic acid (30/70). 10 µL was then injected into the LC‐MS/MS system. Plasma samples were spotted onto the same paper used for whole blood analysis and were extracted and analyzed using the same methods as used for DBS.

[3] = Pharmacokinetics, dried blood spot LC-MS/MS, mice with DLD1 tumors; type: in vivo; conditions: for Tmax / AUC(0-t) / Cmax: Swiss Nu/nu, mouse, whole blood (dried blood spot), po, regorafenib 15, erlotinib 12.5, selumetinib 5, vemurafenib 75 mg/kg; for AUC(0-t) / Cmax: whole blood, mean ± SD; for AUC(0-t): oral, read-out: AUC0-24h
Experimental: The pharmacokinetic (PK) study was performed using the dried blood spot method. Mice were treated with CTRL, ODCs, and corresponding monotherapies as described above. To determine the disposition in blood in the first 24h, blood samples (5 µL/mouse) were collected from the tail vein (n = 4 mice) at 2h, 4h, 8h, and 24h time points and transferred onto paper (a filter paper 903 protein saver card from Whatman (MA, USA)). A disk with the entire spot was punched from the paper card and transferred to the HPLC vial tube. Hundred µL of MeOH containing a mix of internal standards was added, and the tube was vortex‐mixed for about 1 min before injecting 10 µL into the LC‐MS/MS system. The LC‐MS/MS system consisted of an API 4,000 triple quadrupole mass spectrometer (AB sciex, Concord, ON, Canada) controlled by analyst 1.6.1 software. The mass spectrometer was operated in the multiple reaction monitoring (MRM) mode with positive electrospray ionization. The instrument was coupled with an Agilent series 1100 (Waldbronn, Germany) LC system. Chromatography was performed on a Phenomenex Kinetex C18 analytical column (50 mm x 2.1 mm, 2.6 um; Torrance, CA, USA). The flow rate was 0.5 mL/min using gradient elution conditions. The method was fully validated before application to this pharmacokinetic study.

[4] = Clinical plasma pharmacokinetics in patients, plasma concentration limit calculation; type: in vivo; conditions: average plasma concentration calculated from AUC0-24h in patients
Experimental: To select for clinically relevant doses, the clinically attainable drug concentration measured in the blood plasma of patients after treatment is used to calculate the concentration limit for in vitro experiments. […] The average drug concentration is calculated from the AUC0–24h and is implemented as the plasma concentration limit (PCL) which drug dose selection must remain below for in vitro experiments. If a drug is FDA approved, the AUC0–24h selected is the one corresponding to the recommended dose in clinical practice. If a drug is in clinical trials, the AUC0–24h selected is the one corresponding to the maximum tolerated dose in early stage clinical trials. Note, experiments were conducted with the most current PCL calculated from the AUC0–24h information available at the start of experiments (December 2017), see Table S4.

DLD1 tumors = test: Subcutaneous xenograft tumor growth; type: in vivo, Swiss nu/nu mice
Experimental: All procedures including animal use were performed in accordance with the Institutional Ethical Committee of Animal Care in Geneva and the Swiss Cantonal Veterinary Office (Authorization number GE‐136‐19). Briefly, female and male Swiss nu/nu mice aged 6–8 weeks were obtained from Charles River (Écully, France). For subcutaneous xenografts mice were inoculated in the left flank with 5x10^6 DLD1 or SW620 cells suspended in 100 µL of cell culture medium, supplemented with 1% FBS.
Drugs were administered through oral gavage based on average body weight of the males (100 µL/mouse) and females (80 µL/mouse) at various concentrations, see Tables S10 and S11.
Solution A: step (1) 30% PEG 400 + 5% propylene glycol + 0.5% Tween 80 and (2) 64.5% sterile H2O. Solution B: step (1) 10% DMSO, (2) 30% PEG 300 + 5% Tween 80 and (3) 55% sterile H2O. […] FOLFOX was administered as 6 mg/kg oxaliplatin two hours before administration of 90 mg/kg leucovorin and 50 mg/kg (DLD1) or 25 mg/kg (SW620) 5‐fluorouracil at day 1 and a repeat of 5‐fluorouracil dosing on day 2.
The Bliss independence model can be used to evaluate the drug interaction potential of a drug mixture. […] The model is based on the probability theory and requires the drug activity of each drug at the selected dose to predict the inhibition rate (IR) at additive doses.

[5] = given as part of DLD1-specific ODC
[6] = erlotinib 5 mg/kg, Exp 1, Day 11
[7] = erlotinib 12.5 mg/kg, Exp 1, Day 11
[8] = erlotinib 12.5 mg/kg, Exp 5, Day 16
[9] = erlotinib 12.5 mg/kg, Exp 7, Day 15

Q: For `C#Cc1cccc(Nc2ncnc3cc(OCCOC)c(OCCOC)cc23)c1` [erlotinib], which AUC [1] is on record?
A: 15.2 mg*h/L EPAR WC00033991

Q: And the concentration at 1 h ([2]; serum, as part of ODC, regorafenib 15, erlotinib 12.5, selumetinib 5, vemurafenib 75 mg/kg, read-out: concentration serum)?
A: 3040 ± 910 ng/mL

Q: What about the concentration at 1 h ([2]; serum, single drug, regorafenib 15, erlotinib 12.5, selumetinib 5, vemurafenib 75 mg/kg, read-out: concentration serum) of the same molecule?
A: 2330 ± 180 ng/mL

Q: And the concentration at 1 h ([2]; tumor (DLD1), as part of ODC, DLD1 tumor, doses as E156, read-out: concentration tumor)?
A: 7600 ± 3200 ng/g

Q: What about the concentration at 1 h ([2]; tumor (DLD1), single drug, DLD1 tumor, doses as E156, read-out: concentration tumor) of the same molecule?
A: 3620 ± 140 ng/g

Q: And the Kp at 1 h ([2]; as part of ODC)?
A: 2.5

Q: What about the Kp at 1 h ([2]; single drug) of the same molecule?
A: 1.55

Q: And the “ratio ODC vs single drug” value ([2]; serum)?
A: 1.31

Q: And the “ratio ODC vs single drug” value ([2]; tumor)?
A: 2.10

Q: And the Tmax [3, 5]?
A: 2 h

Q: And the AUC(0-t) [3, 5]?
A: 22300 ± 5140 ng·h/mL

Q: And the Cmax [3, 5]?
A: 3370 ± 2160 ng/mL

Q: And the Tmax ([3]; mono)?
A: 2 h

Q: What about the AUC(0-t) ([3]; mono) of the same molecule?
A: 19600 ± 7660 ng·h/mL

Q: And the Cmax ([3]; mono)?
A: 2610 ± 860 ng/mL

Q: And the “increase of AUC as part of the ODC vs single-drug treatment” value ([3]; mice with DLD1 tumors, AUC0-24h)?
A: 1.14 x

Q: What about the “PCL (plasma concentration limit)” value [4] of the same molecule?
A: 1.61 µM and 1.6 µM

Q: What about the “% CTRL (tumor volume)” value (DLD1 tumors; [6]) of the same molecule?
A: 104 72 27 % CTRL

Q: And the Volume (DLD1 tumors; [6])?
A: 482 336 127 mm^3

Q: And the “% CTRL (tumor volume)” value (DLD1 tumors; [7])?
A: 87 35 13 % CTRL

Q: What about the Volume (DLD1 tumors; [7]) of the same molecule?
A: 405 161 61 mm^3

Q: What about the “% CTRL (tumor volume)” value (DLD1 tumors; [8]) of the same molecule?
A: 66 28 12 % CTRL

Q: What about the Volume (DLD1 tumors; [8]) of the same molecule?
A: 420 178 80 mm^3

Q: And the “% CTRL (tumor volume)” value (DLD1 tumors; [9])?
A: 98 44 22 % CTRL

Q: What about the Volume (DLD1 tumors; [9]) of the same molecule?
A: 420 211 86 mm^3
